Data on 2 compounds can be found in patent US11638736B2, “Compositions for preventing or treating diseases or disorders associated with neuro-inflammation, neuro-apoptosis, or neuro- oxidative damage and uses thereof” (priority 2018, dated 2023).

Assay [1] relates to iNos. It counts as in vivo, C57BL/6 mice. Particulars: brain. The source says: (§1) All experimental animals were approved by the Institutional Animal Care and Use Committee at Konkuk University (IACUC approval number, KU18045), Seoul, Republic of Korea.
In assay [2] the test system is Mac-1.
Description: (§3) Four-week-old male SD rats were purchased from Rion Bio, Inc. and were housed in a temperature-controlled (21-22° C.) and light-controlled (12 h light/dark cycle) environment with 70% humidity; they were given free access to water and rodent chow. […] The brains were dissected and analyzed by histological and western blotting analysis.
(§4) Rat brains were lysed in radioimmunoprecipitation assay lysis buffer containing protease inhibitor (Roche, Mannheim, Germany) and centrifuged at 10,000×g for 30 min at 4° C. Total protein levels were determined using a Bio-Rad protein kit (Bio-Rad, Hercules, Calif., USA). The proteins were separated by electrophoresis in a 10-15% sodium dodecyl sulfate-polyacrylamide gel and transferred onto the Immobilon-P transfer membrane (EMD Millipore Co., Bedford, Mass., USA). The membrane was blocked with 5% bovine serum albumin (Sigma-Aldrich). […] Protein bands were detected using a chemiluminescence method (Thermo Fisher Scientific) by a C-DiGit Blot Scanner (Li-COR, Lincoln, Nebr., USA), and their densities were quantified using ImageJ (NIH, Rockville, Md., USA). […]
In assay [3] the test system is iNOS. The experiment in a line: Western blotting of midbrain, MPTP-treated rats: iNOS. It counts as in vivo, SD rats. Particulars: levodopa 10 mg/kg.
Description: as §3, §4
The next assay has as its system Bcl-2. The experiment in a line: Western blotting of brain, MPTP-treated mice: Bcl-2. It counts as in vivo, C57BL/6 mice. Particulars: Levodopa (positive control).
Description: as §1

In assay [4] the test system is p-IκB-α. The experiment in a line: Western blotting of midbrain, MPTP-treated rats: p-IκB-α. Type of assay: in vivo, SD rats. Particulars: levodopa 10 mg/kg.
Description: as §3, §4
In the next assay the test system is COX-2. Type of assay: in vivo, SD rats.
A further assay has as its system TH-positive cells. The experiment in a line: Immunohistochemical staining of tyrosine hydroxylase (TH) neurons, MPTP-intoxicated mice. Type of assay: in vivo, C57BL/6 mice. The protocol: Brain sections (4 μm thick) were deparaffinized in xylene-alcohol series for 5 min each, with subsequent recovery of antigenic sites on steam fluent (pot value) for 30 min. The slides were washed twice for 5 min with 1× phosphate-buffered saline (PBS) and then immersed in 0.3% hydrogen peroxide for 30 min at 25° C. to block endogenous peroxidase activity. The sections were incubated with 10% goat serum (for polyclonal antibodies) for 30 min and then incubated at 4° C. with the TH primary antibody (Abcam, Cambridge, UK) for 24 h. Subsequently, all samples were incubated with biotinylated goat anti-rabbit IgG (H+L) horseradish peroxidase (HRP)-conjugated antibodies (Zymax). The sections were incubated with 3,3-diaminobenzidine (Vectro Laboratories, Inc., Burlingame, Calif., USA) for 10 min at 37° C. Finally, the tissue sections were counterstained with hematoxylin for 2 min, dehydrated with an alcohol-xylene series, and mounted with coverslips using Permount mounting medium (Thermo Fisher Scientific). The specimens were examined using a Nikon Eclipse TS100 microscope (Nikon, Tokyo, Japan) at 200× magnification, and the microscopy images were analyzed using the OptiView image analysis software (Korea Lab Tech, Seongnam-si, Republic of Korea). Immunopositive neurons were counted manually.

The test system of assay [5] is p-IκB-α. The assay can be described thus: Western blotting of brain, MPTP-treated mice: p-IκB-α. It counts as in vivo, C57BL/6 mice. Particulars: Levodopa.
Description: as §1

A further assay concerns SOD. Type of assay: in vivo, C57BL/6 mice. Particulars: MPTP-treated mice, brain.
Description: as §1

Assay [6] has as its system cytochrome C. It counts as in vivo, C57BL/6 mice. Particulars: MPTP-intoxicated mice, brain.
Description: as §1

The subject of assay [7] is cytochrome C. The experiment in a line: Western blotting, MPTP-treated SH-SY5Y cells: cytochrome C. Particulars: MPTP-intoxicated SH-SY5Y cells. It counts as cell-based, human. The protocol:
(§2) Human Neuroblastoma Cells (SH-SY5Y) (Korean Cell Bank, Seoul, Korea) were cultured in Dulbecco's modified Eagle's medium containing 10% fetal bovine serum (Hyclone, Logan, Utah, USA) and 1% penicillin-streptomycin (GIBCO, Grand Island, N.Y., USA) in a humidified incubator with 5% CO2 at 37° C.

Assay [8] relates to Mac-1. The experiment in a line: Western blotting, MPTP-treated SH-SY5Y cells: Mac-1. Type of assay: cell-based, human. Particulars: 2-mM MPTP-intoxicated SH-SY5Y cells. The protocol:
as §2

A further assay deals with SH-SY5Y cells. The experiment in a line: MTT cell viability in MPTP-treated SH-SY5Y cells. Particulars: 24 h. It counts as cell-based, human. The protocol: 1-Methyl-4-phenylpyridinium (MPP+) induces a severe parkinsonian-like syndrome and a significant reduction in dopaminergic cells by the selective inhibition of complex I in the mitochondrial electron transport chain.
as §2
SH-SY5Y ([…]) cells were cultured in a 96-well plate, and cell viability was determined using the MTT (Promega, Madison, Wis., USA) assay as described previously. […] The MTT solution was then added, followed by incubation at 37° C. for 4 h. The supernatant was removed, and the formed formazan crystals were dissolved in dimethyl sulfoxide. The absorbance of the resulting solution was measured at 540 nm using a UVM 340 microplate reader (Biochrom Asys, Cambridge, UK).

Description for COX-2: as §3, §4

As to `N[C@@H](Cc1ccc(O)c(O)c1)C(=O)O` [Levodopa], in the assay on iNos [1] (MPTP mice, Levodopa treatment), the “elevation of iNos expression” value is given as “inhibited”. In the assay with Mac-1 [2] (MPTP rats, levodopa 10 mg/kg), the “elevated level of MAC-1 attenuated vs MPTP control” value is recorded as 1.9 fold. For the same compound, in the assay with iNOS [3], the “elevated iNOS expression inhibited vs MPTP control” value is reported as 2.9 fold. Moreover, the “effects of MPTP on Bcl-2 protein expression” value in the assay with Bcl-2 was “significantly reversed”. Further, the “p-IκB-α level reduced, compared to MPTP control group” value in the assay on p-IκB-α [4] was found to be 1.2 fold. Also, the “expression level of COX-2 downregulated” value with COX-2 (MPTP rats, levodopa 10 mg/kg) was 1.7 fold. In addition, the “numbers of TH-positive cells vs MPTP-intoxicated group” value in the assay with TH-positive cells (MPTP mice, levodopa 2 mg/kg oral) was “significantly elevated”. In addition, the “increased p-IκB-α level” value in the assay with p-IκB-α [5] is “slightly restored”.
For the compound `CN1CC=C(c2ccccc2)CC1` [MPTP, 1-methyl-4-phenyl-1,2,3,6-tetrahydropyridine], the “expression level of SOD lower than in sham group” value in the assay on SOD amounted to 2.3 folds. The “protein expression level of cytochrome C upregulated by, compared with sham mice” value in the assay on cytochrome C [6] worked out at 0.54 folds. Also, the “iNos protein expression level elevated by, compared with sham group” value in the assay with iNos [1] (MPTP-treated mice) is reported as 0.44 folds. Also, the “protein expression level of cytochrome C upregulated” value with cytochrome C [7] was 10 folds. The “Mac-1 protein expression level elevated by, compared with normal cells” value in the assay with Mac-1 [8] came out at 0.8 folds. For the same compound, the “expression of Mac-1 protein elevated, compared with sham groups” value in the assay with Mac-1 [2] (MPTP control rats) is recorded as 6.4 fold. The cell death in the assay on SH-SY5Y cells (1 mM MPTP) is on record as 29.05%; in the assay on SH-SY5Y cells (2 mM MPTP), 68.89%. Moreover, the “COX-2 protein overexpressed, with reference to sham operated group” value in the assay on COX-2 (MPTP-intoxicated rats) amounted to 6 fold. Further, in the assay on TH-positive cells (MPTP-intoxicated mice, 20 mg/kg/day), the “number of TH-positive cells reduced, compared with sham group” value was “more than two-fold”.
